# Reference: patent US20240376098A1, “METHODS OF TREATMENT USING BCN057, BCN077 AND ANALOGS” (BCN Biosciences L.L.C., priority 2021, published 2024)
# Tests used:
# Panc-1 cells = test: RealTime-Glo Annexin V Apoptosis and Necrosis Assay; format: cell-based, human; conditions: serial dilutions, 10 minutes to 6 hours
# Procedure: To validate the involvement of apoptosis in BCN057 induced cell death, the Panc1 cells with/without BCN057 were subjected to Anexin V staining. Anexin V staining was performed up to 6 hours and measured as a function of dose response of BCN057. […] FIG. 2B is a graph of Annexin V Apoptosis and Necrosis Assay in Panc-1 cells. Panc-1 cells were exposed to serial dilutions of BCN057 in the presence or absence of the RealTime-Glo™ Annexin V Apoptosis and Necrosis Assay Reagent. The plate was incubated at 37° C./5% CO2 and luminescence (Annexin V binding) was measured over a period of six hours. […] Apoptosis appeared to increase with increasing concentrations of BCN057.
# GSK3b = biological target: T1, GSK3b (Homo sapiens, UniProt P49841); test: Western blot of GSK3b phosphorylation at S-9 in Panc1 cells; format: cell-based; conditions: 10 μM BCN057, over time
# T1 construct: endogenous in cells; host or cells: Panc-1
# Procedure: Western Blot: Cells were harvested and lysed in cell lysis buffer on ice for 15 minutes and the lysate was centrifuged at 13,000 rpm at 4° C. for 10 minutes. The supernatant was transferred into a new tube for BCA protein quantification assay (Thermo Fisher Scientific) and the samples were normalized. 3× loading buffer (Cell Signaling) was added the protein sample and boiled for 5 minutes. The samples were used for SDS-PAGE analysis and transferred to nitrocellulose membrane. The membrane was blocked with 5% BSA at room temperature for 1 hour and incubated with primary antibody at 4° C. overnight. The membrane was washed with 1×TBST 5 minutes for 3 times and incubated with horseradish peroxidase-conjugated secondary antibody for 1 hour at room temperature. The protein was visualized by SuperSignal West Pico Stable Peroxide Solution (Thermo Fisher Scientific). The blot was visualized by chemiluminescence using a BioRad Versadoc Imaging System.
# (§1) To investigate the role BCN057 may have in the restoration of apoptosis in this cell line, the GSK3b-c-Jun relationship was assessed as it has been directly linked to apoptosis. Others have reported a link with GSK3b and c-Jun and apoptosis along with the fact that […] is over expressed in the oncogenic KRAS phenotype.
# [1] = test system: Bax, BCl-2, Akt-1 and Caspase-3 in Panc-1 cells; test: qPCR of pro apoptosis and anti-apoptosis markers; format: cell-based, human; conditions: 1-hour post treatment
# Source text: FIG. 2C is a histogram of the results of qPCR analysis of pro apoptosis and anti-apoptosis markers in Panc-1 cells.
# [2] = test system: irradiated mouse T-lymphocytes; test: In vitro viability assay on irradiated T-lymphocytes; format: cell-based; conditions: T-lymphocyte
# Procedure: FIG. 7A is a western blot showing PD-1 expression on human T-lymphocytes co-cultured with Panc-1 cells with no drug (vehicle) or 1, 6 and 12 hours with BCN057. FIG. 7B is a graph showing that the inhibition of GSK3b induces survival of Lymphocytes when exposed to radiation.
# FIG. 8 is western blot showing PDL-1 expression (red arrow) on Panc-1 cells co cultured with human T-lymphocytes with no drug (vehicle) or 2.5, 5, 7.5 and 10 hrs. with BCN057. […] In a separate study using mouse T-lymphocytes, 2Gy radiation was used to induce apoptosis with increasing amounts of BCN057.
# [3] = biological target: T2, GSK3b in non-transformed cell types such as HEK298 (Homo sapiens, UniProt P49841); test: GSK3b inhibition in non-transformed cells; format: cell-based
# T2 construct: endogenous in cells; host or cells: HEK298 (so in the source)
# Procedure: as §1
# T1 sequence (P49841 whole entry): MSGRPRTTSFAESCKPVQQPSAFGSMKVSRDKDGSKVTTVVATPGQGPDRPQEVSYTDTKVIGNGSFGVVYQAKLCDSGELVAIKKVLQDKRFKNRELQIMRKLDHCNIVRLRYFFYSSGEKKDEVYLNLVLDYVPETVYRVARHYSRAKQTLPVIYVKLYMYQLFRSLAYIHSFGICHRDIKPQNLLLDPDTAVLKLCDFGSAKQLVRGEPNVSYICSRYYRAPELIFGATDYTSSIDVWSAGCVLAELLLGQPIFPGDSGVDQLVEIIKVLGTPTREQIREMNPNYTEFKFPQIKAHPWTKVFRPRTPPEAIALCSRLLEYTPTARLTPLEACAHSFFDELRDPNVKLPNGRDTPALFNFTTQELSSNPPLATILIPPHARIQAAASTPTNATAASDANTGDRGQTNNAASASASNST
# T2 sequence (P49841 whole entry): as above
compound,measurement,setting,value
"COc1ccc2cc(-c3nc4ccc(C)cn4c3NCc3ccco3)c(=O)[nH]c2c1 [BCN057, 3-[(Furan-2-ylmethyl)-amino]-2-(7-methoxy-2-oxo-1,2-dihydro-quinolin-3-yl)-6-methyl-imidazo[1,2-a]pyridin-1-ium]","Apoptosis (Annexin V binding, luminescence)",Panc-1 cells,Dose and time dependent increase in apoptosis
same,GSK3b phosphorylation at S-9,GSK3b,rapid induction of phosphorylation at S-9
same,Akt-1 expression,[1],did not affect
same,Bax gene expression,[1],induces expression
same,Bcl2 gene expression,[1],inhibited
same,Caspase-3 expression,[1],did not affect
same,EC50,"[2]; light or radiation study, viability of irradiated mouse T-lymphocytes",5.34 µM
same,EC50,"[2]; preservation of mouse T-lymphocytes, 2Gy radiation",5.34 µM
same,GSK3b inhibition,[3],inhibition was noted
